Here are results for one molecule from patent US20070161643A1, “Pyridin-2-one compounds useful as inhibitors of thrombin” (priority 2004, published 2007).

The structures appear in SMILES notation.

For this experiment, the target named is T1, Human α-thrombin (Homo sapiens, UniProt P00734).
T1 construct: 12 μL of α-thrombin solution (Human α-thrombin, Sigma Chemical Co. or Hematologic Technologies); purchased Sigma Chemical Co. or Hematologic Technologies
Description: Test B: Determination of thrombin inhibition with a chromogenic, robotic assay. Type of experiment: biochemical. On the procedure: The thrombin inhibitor potency is measured with a chromogenic substrate method, in a Plato 3300 robotic microplate processor (Rosys AG, CH-8634 Hombrechtikon, Switzerland), using 96-well, half volume microtitre plates (Costar, Cambridge, Mass., USA; Cat No 3690). Stock solutions of test substance in DMSO (72 μL), 0.1-1 mmol/L, are diluted serially 1:3 (24+48 μL) with DMSO to obtain ten different concentrations, which are analysed as samples in the assay. 2 μL of test sample is diluted with 124 μL assay buffer, 12 μL of chromogenic substrate solution (S-2366, Chromogenix, Mölndal, Sweden) in assay buffer and finally 12 μL of α-thrombin solution (Human α-thrombin, Sigma Chemical Co. or Hematologic Technologies) in assay buffer, are added, and the samples mixed. The final assay concentrations are: test substance 0.00068-133 μmol/L, S-2366 0.30 mmol/L, α-thrombin 0.020 NIHU/mL. The linear absorbance increment during 40 minutes incubation at 37° C. is used for calculation of percentage inhibition for the test samples, as compared to blanks without inhibitor.

By IC50 is commonly meant the concentration that gives 50% inhibition. Lower therefore signals greater potency in that assay. In turn, `Cc1ccc(C)c(CCNn2ccc(C)c(CC(=O)NCc3ccc(C(=N)N)cc3)c2=O)c1` [2(xi), N-(4-Carbamimidoylbenzyl)-2-{1-[2-(2,5-dimethylphenyl)ethylamino]-4-methyl-2-oxo-1,2-dihydropyridin-3-yl}acetamide] had an IC50 of 92.2 nM.
